The source of these data is patent US20050065064A1, “Identification of allosteric peptide agonists of CXCR4” (priority 2002, published 2005).

Where a SMILES comes first, the peptide text is derived from it. Where only a bound is given, the exact number is not on record here.

Series [1] deals with T1, CXCR4 (Homo sapiens, UniProt P61073). In words: β-galactosidase assay in yeast expressing CXCR4 (FUS1-lacZ reporter). It is filed as cell-based. Details: The plasmid Cp4181 contains the CXCR4 gene under the control of the constitutive phosphoglycerate kinase (PGK1) promoter; expressed in transfected cells; host or cells: Saccharomyces cerevisiae CY12946 derivatives YAS2 / YAS3 (plasmid Cp4181). The text has this:
The initial S. cerevisiae strain was CY12946 (MATα FUS1p-HIS3 GPA1Gαi2(5) canI farIΔI442 his3 leu2 sst2Δ2 ste14::trp1::LYS2 ste3Δ1156 tbt1-1 trp1 ura3) (23). Except for the specific chimeric Ga subunit expressed, CY12946 is genetically similar to CY1141, reported in Klein et al. (18), with two differences. First, the two strains express different Gα subunits. Specifically, CY12946 expresses a chimeric Gα subunit (GPA1Gαi2(5)) in which the C-terminal 5 amino acids of the yeast Ga subunit, GPA1, are replaced by the C-terminal 5 residues of Gαi2. In contrast, as described by Klein et al. (18), CY1141 expresses a chimeric Ga subunit (GPA1(41)Gαi2) in which the N-terminal 33 residues of Gαi2 are replaced by the 41 N-terminal residues of GPA1. We have used CY12946 in the current report because GPA1Gαi2(5) is more efficient than GPA1(41)Gαi2 in coupling CXCR4 to the pheromone response pathway. The use of GPA1Gαi2(5) necessitated deletion of SST2, which down-regulates the pheromone response pathway by accelerating the GTPase activity of GPA1. Thus, the second difference between CY12946 and CY1141 is the presence of an sst2 deletion allele in CY12946. All plasmids were 2μ-derived and contained a REP3 element for autonomous replication in S. cerevisiae and AmPR for selection in Escherichia coli. The plasmid Cp4181 contains the CXCR4 gene under the control of the constitutive phosphoglycerate kinase (PGK1) promoter and a LEU2 selectable marker. […] It also contains the TRP1 selectable marker. Cp6160 expresses full length wild-type SDF-1α in yeast under the control of the constitutive alcohol dehydrogenase (ADH1) promoter. The α-factor signal sequence is cloned at the 5′-end of the SDF sequence to allow secretion of the mature polypeptide. The vector also has the URA3 selectable marker allowing transformed cells to grow in media deficient in uracil. For expression of the 17-mer peptide library, Cp6293 was used. This URA3+plasmid was derived from Cp6160 and contains a frameshift in the SDF-1α sequence so that no functional protein is expressed unless an insert is appropriately cloned. The cDNA coding for 17-mer peptides was cloned using the restriction sites HindIII and Acc65I, which also results in the secretion of the mature peptide. S. cerevisiae strains YAS1, YAS2, YAS3 were constructed by transforming CY12946 with Cp1584, Cp1584/Cp4181 and Cp1584/Cp4181/Cp6160, respectively.
The liquid beta-galactosidase assays were performed essentially as described in (24) or (27) with the following modification. After growth in the appropriate medium, 5 ml of cells displaying the agonist phenotype were centrifuged (2500 rpm for 5 min) and resuspended in 0.5 ml as described (28).
To identify allosteric peptide agonists or modulators of CXCR4, it was necessary to establish an assay that could isolate molecules with the desired properties from a large peptide library. The screen that was used consisted of two steps. The first step was to isolate peptide sequences from a synthetic cDNA library that would allow cells to grow only after activation of CXCR4. A second step was required that would segregate agonists that bind to the native active site from those that bind to allosteric sites. This step involved an agonist assay in the presence of a receptor antagonist. A number of genetic modifications made to S. cerevisiae allowed it to be used for monitoring the interactions of peptides or proteins with CXCR4 (FIG. 1). […]
Target sequence in this assay (P61073 whole entry): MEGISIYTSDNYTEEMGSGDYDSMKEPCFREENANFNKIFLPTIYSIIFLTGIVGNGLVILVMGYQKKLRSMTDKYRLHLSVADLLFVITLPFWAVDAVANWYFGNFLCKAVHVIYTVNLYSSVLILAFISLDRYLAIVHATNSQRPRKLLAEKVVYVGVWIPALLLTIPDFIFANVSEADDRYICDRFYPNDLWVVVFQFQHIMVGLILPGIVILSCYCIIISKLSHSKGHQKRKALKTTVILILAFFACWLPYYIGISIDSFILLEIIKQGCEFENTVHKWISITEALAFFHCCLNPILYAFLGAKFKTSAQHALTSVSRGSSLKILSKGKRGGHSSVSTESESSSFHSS

Series [2] deals with T1, CXCR4. The series can be described thus: Yeast growth / colony formation in histidine-deficient medium (FUS1-HIS3). It is filed as cell-based. More on the design: The plasmid Cp4181 contains the CXCR4 gene under the control of the constitutive phosphoglycerate kinase (PGK1) promoter; expressed in transfected cells; host or cells: Saccharomyces cerevisiae CY12946 derivatives YAS2 / YAS3 (plasmid Cp4181). As for the experimental part:
All basic media were prepared essentially as described (24). In cases where plasmid selection was necessary, media that lacked uracil, leucine, or tryptophan or an appropriate combination of these nutrients were employed. Library screening was performed in plates that lacked histidine and contained 3-amino-1,2,4-triazole (Sigma), which suppresses the basal level of histidine biosynthesis due to the activity of the FUS1 promoter.
A number of genes for biosynthetic enzymes have been mutated to allow selection of the corresponding marker on a plasmid transformed into the yeast strain. The genomic HIS3 gene, coding for an enzyme essential for the biosynthesis of histidine, has been disrupted by an insertion. The wild-type HIS3 gene has been placed under the control of the pheromone-responsive FUS1 promoter; as a result activation of CXCR4 enables cells to grow in media lacking histidine. To reduce false positives due to any basal activity of FUS1-HIS3,3-amino-1,2,4-triazole, an inhibitor of the enzyme coded by HIS3, is present at low levels in the media during agonist selection. […] Furthermore, the CXCR4 antagonist AMD3100 (34) inhibited YAS2 colony formation (data not shown) and β-galactosidase activity in response to SDF-1α (FIG. 2C).
Target sequence in this assay (P61073 whole entry): as above

A further series has as its system HIV-1. The following applies: in vitro; reference (58); cited from earlier work.
The conditions of series [3]: references (55), (56); cited from earlier work.
Series [4] has as its target T1, CXCR4. In words: Flow cytometry of CXCR4 surface levels (12G5 indirect staining). It is filed as cell-based. The method, then: Flow cytometric analysis of cell subpopulations was performed using a FACS Vantage flow cytometer (Becton-Dickinson Immunocytometry Systems, San Jose, Calif.) for detection of CXCR4 surface expression with the 12G5 monoclonal antibody. An indirect staining protocol was used. Briefly, after a 90 min incubation with various agents, the cells were washed and resuspended in PBS. Nonspecific (Fc-mediated) binding was blocked using purified rat IgG. The primary antibody (12G5, a mouse IgG2a antibody) was added at 1 μg/ml for 45 min. After centrifugation the cells were resuspended in PBS and the secondary antibody (FITC-linked rat anti-mouse IgG2a) was added at 10 μg/ml for 45 min. The cells were fixed with 2% formaldehyde (in PBS) and used within 2 days for data acquisition. Mouse IgG2a was used as an isotype control. For the fluorescence measurements the cells were excited at 488 nm. The FITC fluorescence was collected through a 530/30 nm band pass filter. A minimum of 15,000 cells were examined for each sample. Analysis of data was performed using the CellQuest software (Becton-Dickinson).
Target sequence in this assay (P61073 whole entry): as above

The next series concerns CCRF-CEM cells. In words: Chemotaxis assay (transwell) on CCRF-CEM cells. It is filed as cell-based, human. The method, then:
The CCRF-CEM acute lymphoblastic leukemia cell line was previously shown to express CXCR4 and to migrate in response to SDF-1α (31). The procedure involved cells that were ˜70-80% confluent and were centrifuged at 1000 rpm for 5 min and resuspended at a concentration of ˜10^7 cells/ml. The transwell system (Corning-Costar^R) was used for quantifying the chemotactic response. Six hundred μl of solution with different concentrations of a CXCR4 agonist were added to the bottom of the wells of 24-well culture plates. One hundred μl of the cell suspension was aliquoted in the transwell cups and inserted in the wells. The bottom of the cups is layered with a membrane that has a 5 μm pore size and allows cell movement towards the higher concentration of chemoattractant. The cells were incubated for 2h at 37° C., after which the migrated cells were collected and counted with an electronic particle counter (Coulter^R). In cases where the effect of neutralization by CXCR4 monoclonal antibodies or antagonists was examined, the inhibitor was added to the upper compartment along with the cells.

In series [5] the test system is CXCR4. In words: β-galactosidase assay in yeast expressing CXCR4 (FUS1-lacZ reporter). Type of series: cell-based, human. The following applies: yeast lacking CXCR4; data not shown. The source says: The initial S. cerevisiae strain was CY12946 (MATα FUS1p-HIS3 GPA1Gαi2(5) canI farIΔI442 his3 leu2 sst2Δ2 ste14::trp1::LYS2 ste3Δ1156 tbt1-1 trp1 ura3) (23). Except for the specific chimeric Ga subunit expressed, CY12946 is genetically similar to CY1141, reported in Klein et al. (18), with two differences. First, the two strains express different Gα subunits. Specifically, CY12946 expresses a chimeric Gα subunit (GPA1Gαi2(5)) in which the C-terminal 5 amino acids of the yeast Ga subunit, GPA1, are replaced by the C-terminal 5 residues of Gαi2. In contrast, as described by Klein et al. (18), CY1141 expresses a chimeric Ga subunit (GPA1(41)Gαi2) in which the N-terminal 33 residues of Gαi2 are replaced by the 41 N-terminal residues of GPA1. We have used CY12946 in the current report because GPA1Gαi2(5) is more efficient than GPA1(41)Gαi2 in coupling CXCR4 to the pheromone response pathway. The use of GPA1Gαi2(5) necessitated deletion of SST2, which down-regulates the pheromone response pathway by accelerating the GTPase activity of GPA1. Thus, the second difference between CY12946 and CY1141 is the presence of an sst2 deletion allele in CY12946. All plasmids were 2μ-derived and contained a REP3 element for autonomous replication in S. cerevisiae and AmPR for selection in Escherichia coli. […]

Series [6] concerns the target T1, CXCR4. The following applies: reference (31); cited from earlier work.
Target sequence in this assay (P61073 whole entry, species assumed): as the sequence (P61073 whole entry) above

As for `c1cc(CN2CCCNCCNCCCNCC2)ccc1CN1CCCNCCNCCCNCC1` [AMD3100, reference compound], the “effect on basal level of the pheromone-responsive Fus1 promoter” value on CXCR4 [1] (AMD3100 1 μM (FIG. 2C)) is “does not effect the basal level”. Also, at CXCR4 [1] (AMD3100 1 μM, SDF-1α 100 nM (FIG. 2C)), the “inhibition of β-galactosidase activity in response to SDF-1α” value was “inhibited”. Further, the YAS2 colony formation entry at CXCR4 [2] (in response to SDF-1α, data not shown) is recorded as “inhibited”. The “interaction between T-20 and AMD3100” value in the series on HIV-1 is reported as “strong in vitro synergy”. Also, the “toxicity / adverse effects in clinical trials” value in series [3] was “cardiac toxicity”.

Take `CC(C)C[C@H](NC(=O)[C@H](CO)NC(=O)[C@H](C)N)C(=O)N[C@@H](Cc1c[nH]c2ccccc12)C(=O)N[C@@H](CC(C)C)C(=O)N[C@@H](CO)C(=O)N[C@@H](Cc1ccc(O)cc1)C(=O)N[C@@H](CCCNC(=N)N)C(=O)N[C@@H](CS)C(=O)N1CCC[C@H]1C(=O)N[C@@H](CS)C(=O)N[C@@H](CCCNC(=N)N)C(=O)N[C@@H](Cc1ccccc1)C(=O)N[C@@H](Cc1ccccc1)C(=O)N[C@@H](CCC(=O)O)C(=O)N[C@@H](CO)C(=O)N[C@@H](Cc1c[nH]cn1)C(=O)O` [ASLW] (H-ASLWLSYRCPCRFFESH-OH; N-terminus and C-terminus assumed): the “effect on CXCR4 levels on the cell surface” value at CXCR4 [4] (90 min incubation, SDF-Fc 1 μM, RSVM 200 μM, ASLW 100 μM (FIG. 8A-C)) is reported as “only aminor decrease”. On CXCR4 [4] (FIG. 8D, 8E), the “concentration dependence of the effect on CXCR4 surface levels” value is reported as “No significant concentration-dependent response”. At CXCR4 [1] (peptide-expressing yeast clones), the “resistance of β-galactosidase activity to AMD3100” value is listed as “resistance to AMD3100”. Besides, the “β-galactosidase activity on endogenous expression of the peptide” value at CXCR4 [1] (yeast strains with or without CXCR4 (FIG. 3)) is “significant increase of β-galactosidase activity only in the strain that co-expresses CXCR4”. In the series with CCRF-CEM cells (CCRF-CEM cells), the “agonist character in chemotaxis (chemotactic index relative to SDF-Fc)” value is “superagonist activity”. Moreover, the EC50 in the series on CCRF-CEM cells (CCRF-CEM cells (FIG. 4A, 4B), read-out: apparent EC50, chemotaxis) was over 60 µM. In addition, the “chemotactic activity combined with SDF-Fc” value in the series on CCRF-CEM cells (CCRF-CEM cells (FIG. 4D)) is “approximately additive”. Further, the “chemotaxis in the presence of the two peptide agonists ASLW and RSVM” value with CCRF-CEM cells (CCRF-CEM cells (FIG. 4E)) is given as “additive”. Moreover, the “effect of AMD3100 on chemotactic activity of the agonist” value with CCRF-CEM cells (CCRF-CEM cells, AMD3100 up to 100 μg/ml (~115 μM)) was “Strong resistance to inhibition”. The “effect of T140 on chemotactic activity of the agonist” value with CCRF-CEM cells (CCRF-CEM cells, T140 up to concentrations comparable to the agonists) was “does not inhibit”. Also, the “effect of antibody 44717.111 on chemotactic activity of the agonist” value in the series with CCRF-CEM cells (CCRF-CEM cells, up to 50 μg/ml for the peptides, ten-fold lower for SDF-Fc) is listed as “neither RSVM- nor ASLW-mediated chemotactic activity is significantly affected”.

For SDF-1α, the “response of strain without the receptor (YAS 1)” value in the series on CXCR4 [5] is on record as “does not respond”. Besides, in the series with CXCR4 [1] (HIS3-/CXCR4+ yeast with FUS1-lacZ, SDF-1α 100 nM, D-SDF-1α 100 nM, 14-mer 1 μM (FIG. 2B)), the “induction of β-galactosidase activity” value is “induces an increase of β-galactosidase activity”. Besides, the EC50 on CXCR4 [6] is 0.001 to 0.01 µM. Besides, on CXCR4 [2] (endogenously expressed SDF-1α, strain expressing CXCR4 (FIG. 2A)), the “growth in the absence of histidine” value is reported as “allows the strain expressing CXCR4 to grow in the absence of this amino acid”.
